Measurements: publication PMC10153361, “Mechanism of imidazole inhibition of a GH1 β‐glucosidase” (FEBS Open Bio, 2023)

Assays:
[1] = target: T1, Sfβgly (GH1 β-glucosidase from Spodoptera frugiperda) (Spodoptera frugiperda, UniProt O61594); test: initial-rate kinetics, Lineweaver-Burk plots, p-nitrophenolate release; assay type: biochemical; conditions: competitive; also a substrate; substrate p-nitrophenyl β-glucoside; 100 mM phosphate pH 6.0, 30 °C
T1 construct: recombinant, E. coli BL21(DE3), vector pET46, Ni-NTA purified; secreted digestive midgut enzyme; catalytic residues E187 and E399
T1 sequence (O61594 21-509): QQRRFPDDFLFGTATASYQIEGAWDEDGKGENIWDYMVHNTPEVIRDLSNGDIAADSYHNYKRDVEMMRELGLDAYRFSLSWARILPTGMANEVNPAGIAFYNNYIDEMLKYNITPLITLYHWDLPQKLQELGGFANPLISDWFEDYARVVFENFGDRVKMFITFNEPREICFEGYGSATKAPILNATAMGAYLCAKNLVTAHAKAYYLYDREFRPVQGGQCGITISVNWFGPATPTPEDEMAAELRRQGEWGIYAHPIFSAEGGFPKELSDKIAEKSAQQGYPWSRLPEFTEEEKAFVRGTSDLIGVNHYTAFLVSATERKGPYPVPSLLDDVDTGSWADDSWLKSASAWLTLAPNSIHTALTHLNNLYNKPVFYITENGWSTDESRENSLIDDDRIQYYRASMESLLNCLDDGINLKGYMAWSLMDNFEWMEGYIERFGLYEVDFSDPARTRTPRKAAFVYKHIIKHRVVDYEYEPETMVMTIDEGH

[2] = target: T1, Sfβgly (GH1 β-glucosidase from Spodoptera frugiperda); test: initial-rate kinetics, Lineweaver-Burk and secondary plots, p-nitrophenolate release; assay type: biochemical
Excerpt: initial-rate kinetics, Lineweaver-Burk and secondary plots, p-nitrophenolate release on Sfβgly (GH1 β-glucosidase from Spodoptera frugiperda)

| SMILES | Ki [1] [mM] | Ki [2] [mM] |
| --- | --- | --- |
| OC[C@H]1O[C@@H](O[C@H]2[C@H](O)[C@@H](O)C(O)O[C@@H]2CO)[C@H](O)[C@@H](O)[C@@H]1O (some centres unmarked) [C2, cellobiose] | 10 | – |
| c1c[nH]cn1 [imidazole] | – | 15.3 ± 0.3 |
